Test results taken from the supplement of paper PMC10307832.

Legend:
Test in all cases: relative viability (nuclei count vs DMSO), 5 days (fraction); higher = more cells survive
[1] = compound: O=C(Nc1cccc(C(F)(F)F)c1)Nc1cc(S(=O)(=O)NC2CC2)ccc1-c1ccsc1 [AGI-6780] + COc1cc2c(Oc3ccc(NC(=O)C4(C(=O)Nc5ccc(F)cc5)CC4)cc3F)ccnc2cc1OCCCN1CCOCC1 [Foretinib] (partner 0.25 µM)
Procedure, shortened: (§1)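 Each reported value is a median over duplicate plates. It expresses relative viability: treated-well nuclei count divided by vehicle-well nuclei count. Lung cancer cell lines in 1536-well plates were dosed by pin tool a day after seeding, alone with one drug or with a fixed anchor-drug dose plus five library-drug doses (not always all listed) in √10 steps, and nuclei were counted after 5 days.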

[2] = compound: O=C(Nc1cccc(C(F)(F)F)c1)Nc1cc(S(=O)(=O)NC2CC2)ccc1-c1ccsc1 [AGI-6780] + Nc1nc2[nH]cc(CCc3ccc(C(=O)N[C@@H](CCC(=O)O)C(=O)O)cc3)c2c(=O)[nH]1 [Pemetrexed] (partner 0.2 µM)
Procedure, shortened: as §1

[3] = compound: O=C(Nc1cccc(C(F)(F)F)c1)Nc1cc(S(=O)(=O)NC2CC2)ccc1-c1ccsc1 [AGI-6780] + COc1cccc2cc(-c3nc([C@H]4CC[C@H](C(=O)O)CC4)n4ncnc(N)c34)[nH]c12 [OSI-027] (partner 0.5 µM)
Procedure, shortened: as §1

[4] = compound: O=C(Nc1cccc(C(F)(F)F)c1)Nc1cc(S(=O)(=O)NC2CC2)ccc1-c1ccsc1 [AGI-6780] + NC(=O)Nc1cc(-c2cccc(F)c2)sc1C(=O)N[C@H]1CCCNC1 [AZD7762] (partner 0.2 µM)
Procedure, shortened: as §1

Cell Line	relative viability ([1]; first compound 0.08 µM)	relative viability ([1]; first compound 0.253 µM)	relative viability ([1]; first compound 0.8 µM)	relative viability ([1]; first compound 2.53 µM)	relative viability ([1]; first compound 8 µM)	relative viability ([2]; first compound 0.08 µM)	relative viability ([2]; first compound 0.253 µM)	relative viability ([2]; first compound 0.8 µM)	relative viability ([2]; first compound 2.53 µM)	relative viability ([2]; first compound 8 µM)	relative viability ([3]; first compound 0.08 µM)	relative viability ([3]; first compound 0.253 µM)	relative viability ([3]; first compound 0.8 µM)	relative viability ([3]; first compound 2.53 µM)	relative viability ([3]; first compound 8 µM)	relative viability ([4]; first compound 0.08 µM)	relative viability ([4]; first compound 0.253 µM)	relative viability ([4]; first compound 0.8 µM)	relative viability ([4]; first compound 2.53 µM)	relative viability ([4]; first compound 8 µM)
NCI-H1755	0.986	0.975	0.85	0.874	0.905	0.496	0.495	0.475	0.435	0.402	0.836	0.758	0.677	0.503	0.666	0.478	0.417	0.485	0.419	0.435
NCI-H23	1.12	0.968	1.02	0.96	0.865	0.568	0.733	0.758	0.787	0.799	0.705	0.623	0.747	0.346	0.672	0.259	0.24	0.23	0.294	0.23
NCI-H838	1.13	1.02	0.987	0.895	1.02	0.258	0.251	0.249	0.23	0.225	0.424	0.434	0.357	0.378	0.39	0.988	0.903	0.919	0.932	0.909
NCI-H596	0.978	1.01	0.788	–	1.06	0.456	0.492	0.472	0.469	0.479	0.803	0.841	0.643	–	0.647	1.18	1.06	1.1	0.891	1.01
201T	1.09	1.08	1.2	1.09	1.05	0.34	0.325	0.345	0.31	0.291	0.713	0.694	0.723	0.325	0.753	0.612	0.577	0.565	0.535	0.656
NCI-H358	0.631	0.688	0.647	0.573	0.79	0.145	0.182	0.148	0.173	0.166	0.846	0.753	0.778	0.467	0.79	0.678	0.504	0.648	0.501	0.475
NCI-H1651	0.87	0.824	0.715	0.692	0.796	0.542	0.643	0.633	0.556	0.623	0.659	0.684	0.731	0.691	0.661	0.42	0.495	0.463	0.518	0.434
LU99A	0.915	0.813	0.874	0.633	0.738	0.193	0.162	0.196	0.195	0.163	0.339	0.304	0.28	0.255	0.31	0.404	0.422	0.45	0.345	0.421
LC-2-ad	0.939	0.849	1.04	0.913	0.901	0.278	0.254	0.255	0.253	0.284	0.829	0.875	0.874	0.638	0.794	0.895	0.885	0.921	0.877	0.859
NCI-H1975	0.979	0.944	0.897	–	0.896	0.313	0.275	0.299	0.288	0.29	0.813	0.751	0.767	–	0.67	0.662	0.848	0.821	0.653	0.711
NCI-H322M	1.06	1.01	1.1	1.07	0.982	–	0.669	0.622	0.636	0.585	0.557	0.562	0.645	0.544	0.64	–	0.767	0.551	0.555	0.653
NCI-H1666	0.945	0.999	0.939	0.929	1.04	0.9	1.02	0.847	1.02	0.863	0.899	0.828	0.809	0.761	1.01	0.809	0.977	0.842	0.926	0.898
EKVX	0.684	0.91	0.756	0.399	0.849	0.381	0.403	0.342	0.388	0.4	0.663	0.665	0.721	0.649	0.716	0.675	0.728	0.806	0.681	0.641
NCI-H1355	0.956	0.98	1.06	0.911	1.04	1.07	1.17	1.02	0.937	1	0.444	0.456	0.422	0.303	0.401	0.792	0.812	0.769	0.663	0.655
PC-3 [JPC-3]	1.08	0.986	0.969	1.05	1.01	–	1.08	1.26	1.19	0.987	0.776	0.748	0.781	0.691	0.76	–	0.758	0.984	0.877	0.729
NCI-H650	1.06	1.05	1.04	0.961	1.07	0.935	0.943	0.993	0.893	0.945	0.509	0.59	0.462	0.443	0.475	0.81	1.05	1.24	0.92	1.07
NCI-H460	0.98	1.04	1.04	0.998	0.991	0.0559	0.0709	0.0574	0.0584	0.0641	0.752	0.639	0.845	0.574	0.694	0.444	0.671	0.684	0.726	0.564

Cell Line	relative viability ([1]; first compound 0.08 µM)	relative viability ([1]; first compound 0.253 µM)	relative viability ([1]; first compound 0.8 µM)	relative viability ([1]; first compound 2.53 µM)	relative viability ([1]; first compound 8 µM)	relative viability ([2]; first compound 0.08 µM)	relative viability ([2]; first compound 0.253 µM)	relative viability ([2]; first compound 0.8 µM)	relative viability ([2]; first compound 2.53 µM)	relative viability ([2]; first compound 8 µM)	relative viability ([3]; first compound 0.08 µM)	relative viability ([3]; first compound 0.253 µM)	relative viability ([3]; first compound 0.8 µM)	relative viability ([3]; first compound 2.53 µM)	relative viability ([3]; first compound 8 µM)	relative viability ([4]; first compound 0.08 µM)	relative viability ([4]; first compound 0.253 µM)	relative viability ([4]; first compound 0.8 µM)	relative viability ([4]; first compound 2.53 µM)	relative viability ([4]; first compound 8 µM)
NCI-H1915	1.04	1.11	1.09	1.1	1.03	0.478	0.491	0.552	0.538	0.452	0.678	0.663	0.594	0.465	0.623	0.715	0.713	0.729	0.637	0.698
ChaGo-K-1	0.986	0.977	0.946	0.751	0.948	0.26	0.267	0.261	0.255	0.25	0.521	0.613	0.577	0.42	0.547	0.851	0.932	0.932	0.812	0.919
NCI-H1437	1.2	1.27	1.21	1.31	1.15	0.338	0.309	0.356	0.346	0.314	0.851	0.86	0.859	0.898	0.927	1.11	1.11	1.28	1.16	1.17
CAL-12T	1	1.15	1.13	1.34	1.11	1.25	1.27	1.35	1.25	1.26	0.748	0.76	0.693	0.428	0.519	0.616	0.649	0.806	0.781	0.687
NCI-H2405	1.06	1.01	0.746	1.02	1	–	1.05	0.902	0.975	1.05	0.671	0.651	0.525	0.549	0.596	–	0.725	0.603	0.752	0.658
LOU-NH91	0.946	0.908	0.961	0.93	0.893	0.402	0.395	0.382	0.389	0.429	0.739	0.705	0.676	0.621	0.709	0.759	0.802	0.79	0.67	0.812
EPLC-272H	–	0.762	0.891	0.489	0.619	0.302	0.4	0.27	0.398	0.272	–	0.282	0.247	0.245	0.293	0.2	0.369	0.345	0.278	0.219
NCI-H1993	0.682	0.838	0.851	0.621	0.771	0.5	0.669	0.634	–	0.542	0.367	0.614	0.46	0.588	0.554	0.681	1.05	1.01	–	0.928
BEN	0.481	0.654	0.662	0.533	0.619	0.644	0.876	0.718	–	0.965	0.311	0.298	0.321	0.28	0.304	0.6	0.737	0.754	–	0.721
NCI-H1734	0.814	0.954	0.83	0.663	0.819	0.479	0.438	0.429	0.426	0.42	0.588	0.665	0.621	0.442	0.573	0.634	0.589	0.618	0.451	0.606
NCI-H2347	0.607	0.828	0.831	0.79	1.57	0.44	0.439	0.428	0.448	0.454	0.403	0.491	0.333	0.378	0.507	0.766	0.78	0.538	0.867	0.929
NCI-H647	1.1	1.2	1.31	1.11	1.4	0.173	0.192	0.119	0.2	0.178	0.784	0.657	0.673	0.668	0.714	0.425	0.484	0.827	0.401	0.589
H3255	0.928	0.798	1.03	0.909	0.85	0.554	0.549	0.636	0.629	0.581	0.667	0.55	0.551	0.523	0.584	0.834	0.918	1.05	1.01	0.875
LCLC-97TM1	1.09	0.929	0.929	0.864	0.84	0.173	0.157	0.192	0.156	0.192	0.596	0.697	0.492	0.398	0.643	0.276	0.279	0.445	0.31	0.303
NCI-H3122	0.971	0.959	1.08	1.03	0.983	0.209	0.199	0.191	0.195	0.185	0.998	0.913	1.08	0.727	1.01	0.983	1.08	1	0.91	1.05
HCC-366	0.857	0.951	0.96	0.881	0.828	0.177	0.174	0.157	0.259	0.168	1.02	1.09	0.926	0.595	1	0.232	0.293	0.34	0.35	0.193
